Measured values reported in patent EP4631504A1, “COMPOSITION FOR PREVENTION OR TREATMENT OF FABRY'S DISEASE” (Korea Advanced Institute of Science and Technology, priority 2022, dated 2024).
“Also recorded” adds a separate entry of the source.

Assays:
FD-VECs [1] = assay: Tube-like structure formation assay of FD-VECs; assay type: cell-based, human
Method: FD-iPSC lines that were generated from fibroblasts of three FD patients with a GLA variant were used. A wild-type (WT) iPSC line derived from foreskin fibroblasts and a FD1 isogenic iPSC line were used as controls. Human iPSCs (hiPSCs) were maintained in mTeSR1 medium ([…] Technologies, Vancouver, Canada) on culture plates precoated with Corning Matrigel® hESC-Qualified Matrix. The cells were maintained at 37°C in a 5% CO2 incubator. After 7 days of culture, hiPSC colonies were split at a 1:50 ratio using accutase solution (eBioscience, San Diego, CA, USA) and incubated under the same culture conditions for expansion.
Human iPSCs were differentiated into VECs as described previously, with further optimization. Briefly, hiPSCs were transferred to dishes coated with Matrigel® (BD Biosciences, Franklin Lakes, NJ, USA) and cultured for 2 days in mTESR1 medium ([…] Technologies) at 37°C and 5% CO2. Subsequently, the cells were cultured for a further 2 days in VEC medium (RPMI (HyClone, Logan, MI, USA), 1% B27 (Invitrogen, Carlsbad, CA, USA), and penicillin/streptomycin (Invitrogen)) supplemented with 50 ng/mL Activin A (PeproTech, Rocky Hill, NJ, USA) and 20 ng/mL BMP4 (PeproTech), and 3 µM CHIR990921 (Sigma, St. Louis, MO) at 37°C and 5% CO2. Next, the cells were cultured for 3 days in VEC medium containing 50 ng/mL VEGF-A (PeproTech) and 50 ng/mL bFGF, at 37°C and 5% CO2. To differentiate the vascular progenitors into VECs, CD31^+ cells were sorted from the differentiated cells by MACS using CD31^+ Dynabeads (Thermo Fisher Scientific, Waltham, MA, USA). The CD31^+ cells were transferred to gelatin-coated plates and incubated for 3 days in EGM-2 medium (Lonza, Basel, Switzerland) supplemented with 100 ng/mL VEGF-A and 50 ng/mL bFGF, at 37°C and 5% CO2. The culture medium was changed daily. Finally, the vascular progenitors were cultured in EGM-2 medium without growth factors for 4 days with daily medium change.
To screen for clinical compounds that could rescue FD-VEC dysfunction, VECs were seeded onto gelatin-coated 96-well plates (SPL Life Sciences, Pocheon, Korea) at a density of 3 × 10^3 cells/cm^2 and maintained in EGM-2 medium without growth factors for 24 hours. […] Subsequently, it was examined whether FD-VECs treated with each selected compound could form tube-like structures on Matrigel®-coated plates. The tube-like structure forming assay was repeated at least three times using different concentrations of each selected compound (0.5, 1, and 5 µM).
FD-VECs were dissociated after treatment with Accutase (eBioscience) at 37°C for 5 min. Dissociated cells (1 × 10^4) were transferred to Matrigel® matrix (BD Biosciences) in EGM-2 medium supplemented with 100 ng/mL VEGF-A, and then incubated at 37°C and 5% CO2 for 24 hours. Images of the vascular tube-like structures were taken using an inverted microscope (Olympus, Tokyo, Japan). Total tube lengths were measured using ImageJ software, which was freely provided by the […], and its Angiogenesis Analyzer plugin (Carpentier, 2012).

[2] = system: p-SMAD2, SMAD2, TSP1, KDR, eNOS; assay: Western blot analysis of p-SMAD2, TSP1, KDR and eNOS in FD-VECs; assay type: cell-based, human; conditions: compared to non-treated FD-VECs
EndMT of FD-VECs = assay: EndMT-associated factors in FD-VECs (Western blot, immunostaining); assay type: cell-based, human
Text: Hyperactive SMAD2 signaling induces EndMT in VECs, thereby reducing angiogenic functionality. […] Before drug treatment, the present inventors performed bulk RNA sequencing of FD-VECs and FD(c)-VECs to examine the mechanism underlying the defective vasculopathy of FD-VECs.

FD-VECs [3] = assay: ROS fluorescence intensity in FD-VECs; assay type: cell-based, human
FD-VECs [4] = assay: Extracellular flux analysis of oxygen consumption rate (OCR); assay type: cell-based, human
[5] = system: FD mice (Gla^-/-/TSP1^Tg); assay: Echocardiography of FD mice after oral administration; assay type: in vivo; conditions: 10 or 30 mg/kg/day for 6 months
Text: Therefore, the present inventors hypothesized that Gla^-/- mice expressing human TSP1 (Gla^-/-/TSP1^Tg; hereinafter referred to as FD mice) might be an effective animal model for studying FD-related vasculopathy. […] LVH is known to occur in up to half of males and one-third of females in FD patients (Kampmann C, Linhart A, Baehner F, Palecek T, Wiethoff CM, Miebach E, Whybra C, Gal A, Bultas J, Beck M (2008) Onset and progression of the Anderson-Fabry disease related cardiomyopathy. International Journal of Cardiology 130: 367-73). Thus, the present inventors investigated the cardiac functionality in each mouse group via echocardiography.
To this end, FD-mice (Gla^-/-/TSP1^Tg) were produced by crossing transgenic mice expressing human TSP1 with Gla^-/- mice. The produced mice were then orally administered lomerizine (10 or 30 mg/kg/day) for 6 months (FIG. 18A).

[6] = system: FD mice (Gla^-/-/TSP1^Tg); assay: Sweat secretion analysis in FD mice; assay type: in vivo; conditions: oral, 10 or 30 mg/kg/day for 6 months
[7] = system: FD mice (Gla^-/-/TSP1^Tg); assay: Heat tolerance test (paw withdrawal latency) in FD mice; assay type: in vivo; conditions: oral, 10 or 30 mg/kg/day for 6 months
[8] = system: FD mice (Gla^-/-/TSP1^Tg); assay: Immunohistochemistry and Western blot of renal tissues of FD mice; assay type: in vivo; conditions: oral administration
[9] = system: Fabry disease mice (Gla^-/-); assay: Echocardiography of Gla^-/- mice after co-administration; assay type: in vivo; conditions: fasudil 30 mg/kg daily oral; enzyme 1 mg/kg i.v. once a week; 6 months
[10] = system: Fabry disease mice (Gla^-/-); assay: Sweat secretion of Gla^-/- mice after co-administration; assay type: in vivo; conditions: fasudil 30 mg/kg daily oral; enzyme 1 mg/kg i.v. once a week; 6 months
[11] = system: Fabry disease mice (Gla^-/-); assay: Hot plate test (55°C) of Gla^-/- mice after co-administration; assay type: in vivo; conditions: hot plate 55°C; fasudil 30 mg/kg daily oral; enzyme 1 mg/kg i.v. once a week; 6 months
Method: Many Fabry disease patients suffer from peripheral neuropathic pain, and one way to indirectly assess the pain in laboratory animals is to measure the time it takes for the hind limbs to jump on a hot plate at 55°C.

[12] = system: Fabry disease mice (Gla^-/-); assay: Kidney tissue analysis of Gla^-/- mice after co-administration; assay type: in vivo; conditions: fasudil 30 mg/kg daily oral; enzyme 1 mg/kg i.v. once a week; 6 months

SMILES: O=S(=O)(c1cccc2cnccc12)N1CCCNCC1 [fasudil]
- tube length of FD-VECs (FD-VECs [1]; 5 µM, compared to the untreated group): significantly increased
- tube formation ability (FD-VECs [1]; 0.5, 1, and 5 µM, versus DMSO control): relatively higher tube formation ability; also recorded: most effective
- optimal concentration (FD-VECs [1]; based on tube formation of FD-VECs): 5 µM
- tube formation ability of VECs derived from FD-iPSC lines with distinct GLA mutations (FD-VECs [1]; fasudil at 5 µM): enhanced
- levels of KDR and eNOS [2]: increased
- levels of p-SMAD2 and TSP1 [2]: reduced
- levels of mesenchymal-related markers (COL1A1, ACTA2, SNAI1, and TWIST) (EndMT of FD-VECs; Western blot): reduced
- protein level of CD31 (EndMT of FD-VECs; Western blot): increased
- fluorescence intensities of EndMT-related factors (ACTA2, SNAI1, COL1A1) (EndMT of FD-VECs; immunostaining): reduced
- level of ROS (FD-VECs [3]): reduced the level of ROS to that seen in WT-VECs and FD(c)-VECs
- basal respiration, ATP production, or spare capacity (FD-VECs [4]): did not alter
- maximal respiration (FD-VECs [4]): partially reduced
- LV mass/BW [5]: significantly reduced
- cardiac ejection fraction, fractional shortening, and cardiac output [5]: enhanced
- anhidrosis (number of sweat spots) [6]: significantly alleviated
- heat insensitivity (paw withdrawal latency) [7]: significantly alleviated
- protein levels of fibrotic and inflammatory markers in renal tissues ([8]; Western blot): confirmed by Western blot analysis
- CD31+ACTA2+ cells in renal tissues ([8]; immunohistochemistry): reduced
- expression levels of F4/80 and LCN2 in renal tissues ([8]; immunohistochemistry): reduced
- expression of COL1A1 in renal tissues ([8]; immunohistochemistry): downregulated
- cardiac function [9]: improvement in cardiac function
- left ventricular hypertrophy [9]: significant reduction
- sweating [10]: reduced
- latency (time for hind limbs to jump on hot plate) [11]: slight decrease in latency
- expression of fibrosis-related marker (COL1A1) and inflammation markers (LCN2 and F4/80) in kidney tissues [12]: reduced
